EPA's ToxRefDB 2

Experiments:
[1] = tested on: rat; conditions: Multigenerational reproductive toxicity study, sprague dawley, Oral, Water, dose end: 2 generation
[2] = tested on: rat; conditions: Multigenerational reproductive toxicity study, other, Oral, Water, dose end: 2 generation
[3] = tested on: rabbit; conditions: Prenatal developmental toxicity study, new zealand white, Oral, Gavage/Intubation, dose end: 19 GD
[4] = tested on: dog; conditions: Sub-acute repeat dose toxicity, beagle, Oral, Water, dose end: 28 day, group: systemic
[5] = tested on: rabbit; conditions: Prenatal developmental toxicity study, new zealand white, Oral, Gavage/Intubation, dose end: 27 GD, group: maternal
[6] = tested on: rat; conditions: Combined chronic toxicity/carcinogenicity, sprague dawley, Oral, Water, dose end: 104 week, group: systemic
[7] = group: offspring, reproductive / offspring survival early / dead fetuses / dead fetuses + reproductive / offspring survival early / live fetuses / live …
[8] = group: parental, systemic / in life observation / food consumption / food consumption + systemic / in life observation / water consumption / water …
[9] = group: reproductive, reproductive / reproductive performance / dystocia / dystocia
[10] = group: reproductive, reproductive / reproductive performance / dystocia / dystocia + reproductive / reproductive performance / postimplantation loss / …
[11] = group: offspring, systemic / in life observation / body weight / offspring (pup) weight + systemic / organ weight / kidney / absolute + systemic / organ …
[12] = group: parental, systemic / in life observation / water consumption / water consumption
[13] = group: parental, systemic / in life observation / water consumption / water consumption + systemic / in life observation / body weight / body weight + …
[14] = group: reproductive, reproductive / reproductive performance / fertility / fertility
[15] = group: developmental, developmental / developmental malformation / aortic arch / dilated + developmental / developmental malformation / bone / [other] + …
[16] = group: maternal, systemic / in life observation / body weight / body weight gain + systemic / in life observation / clinical signs / defecation + systemic / …
[17] = systemic / pathology microscopic / nose / inflammation
[18] = systemic / pathology microscopic / nose / inflammation + systemic / pathology microscopic / stomach / hypertrophy
[19] = systemic / in life observation / body weight / body weight + systemic / in life observation / food consumption / food consumption + systemic…
[20] = systemic / in life observation / water consumption / water consumption

Work on O=[N+]([O-])C(Br)(CO)CO [Bronopol] yielded an LEL [1, 7] of 150 mg/kg/day, an LOAEL [1, 7] of 150 mg/kg/day and an NEL [1, 7] of 50 mg/kg/day. It also gave an NOAEL [1, 7] of 50 mg/kg/day, an LEL [1, 8] of 50 mg/kg/day and an LOAEL [1, 8] of 50 mg/kg/day. The NEL [1, 8] was 10 mg/kg/day, the NOAEL [1, 8] was 10 mg/kg/day and the NEL [1, 9] was 50 mg/kg/day. The NOAEL [1, 9] was 50 mg/kg/day, the LEL [1, 10] was 150 mg/kg/day and the LOAEL [1, 10] was 150 mg/kg/day. The NEL ([2]; group: offspring, systemic / in life observation / body weight / offspring (pup) weight) was 70 mg/kg/day, the LEL [2, 11] was 200 mg/kg/day and the LOAEL [2, 11] was greater than 200 mg/kg/day. For the same compound, the NOAEL [2, 11] was no less than 200 mg/kg/day, the LEL [2, 12] was 25 mg/kg/day and the NEL [2, 12] was less than 25 mg/kg/day. For the same compound, the LOAEL [2, 13] was greater than 200 mg/kg/day, the NOAEL [2, 13] was no less than 200 mg/kg/day and the LEL [2, 14] was 200 mg/kg/day. It also gave an LOAEL [2, 14] greater than 200 mg/kg/day, an NEL [2, 14] of 70 mg/kg/day and an NOAEL [2, 14] of no less than 200 mg/kg/day. The LEL [3, 15] was 80 mg/kg/day, the LOAEL [3, 15] was 80 mg/kg/day and the NEL [3, 15] was 40 mg/kg/day. For the same compound, the NOAEL [3, 15] was 40 mg/kg/day, the LEL [3, 16] was 80 mg/kg/day and the LOAEL [3, 16] was 80 mg/kg/day. For the same compound, the NEL [3, 16] was 40 mg/kg/day, the NOAEL [3, 16] was 40 mg/kg/day and the LEL [4, 17] was 4.1 mg/kg/day. It also gave an NEL [4, 17] of less than 4.1 mg/kg/day, an LOAEL [4, 18] greater than 32.6 mg/kg/day and an NOAEL [4, 18] of no less than 32.6 mg/kg/day. The LOAEL ([5]; systemic / in life observation / body weight / body weight + systemic / in life observation / food consumption / food consumption) was 40 mg/kg/day, the LEL [5, 19] was 40 mg/kg/day and the NEL [5, 19] was 10 mg/kg/day. The NOAEL [5, 19] was 10 mg/kg/day, the LEL [6, 20] was 10 mg/kg/day and the NEL [6, 20] was less than 10 mg/kg/day. The LOAEL ([6]; systemic / in life observation / water consumption / water consumption + systemic / in life observation / body weight / body weight gain + …) was 40 mg/kg/day and the NOAEL ([6]; systemic / in life observation / water consumption / water consumption + systemic / pathology microscopic / stomach / squamous cell …) was 10 mg/kg/day.
